# Literature values in US20100055044A1, “Ruthenium compounds and compositions” (priority 2008, published 2010).
# Where two headings read alike, the source gives them in different places.
# System: Alveolar adenocarcinoma, breast adenocarcinoma, uterine carcinosarcoma, and endometrial carcinoma cells
# Conditions: 8 days
smiles,measurement,setting,value
O=[O+][O-] [ozone],cell growth inhibition,0.3 ppm ozone in air,40%
same,cell growth inhibition,0.5 ppm ozone in air,60%
same,cell growth inhibition,"0.8 ppm ozone in air, cancerous cells",90%
